Data taken from ChEMBL document CHEMBL1125841, “Nucleosides and nucleotides. 96. Synthesis and antitumor activity of 5-ethynyl-1-beta-D-ribofuranosylimidazole-4-carboxamide (EICAR) and its derivatives” (J Med Chem, 1991).
≈ marks a conversion by molar mass, not a printed value.

Legend:
OST = assay: In vitro inhibitory activity against growth of Human osteosarcoma (OST) cells; type: functional, cell-based
SW480 = assay: In vitro inhibitory activity against growth of Human colon adenocarcinoma (SW-480) cells; type: functional, cell-based
PC-6 = assay: In vitro inhibitory activity against growth of Human lung small-cell carcinoma (PC-6) cells; type: functional, cell-based
QG-56 = assay: In vitro inhibitory activity against growth of Human lung squamous-cell carcinoma (QG-56) cells; type: functional, cell-based
HL-60 = assay: In vitro inhibitory activity against growth of Human promyelocytic leukemia (HL-60) cells; type: functional, cell-based
G-292 = assay: In vitro inhibitory activity against growth of Human osteogenic sarcoma (G-292) cells; type: functional, cell-based; conditions: G292
T-24 = assay: In vitro inhibitory activity against growth of Human bladder transitional-cell carcinoma (T-24) cells; type: functional, cell-based
RPMI-8226 = assay: In vitro inhibitory activity against growth of Human myeloma (RPMI 8226) cells; type: functional, cell-based
Calu-1 = assay: In vitro inhibitory activity against growth of Human epidermoid carcinoma (Calu-1) cells; type: functional, cell-based
Lu-65 = assay: In vitro inhibitory activity against growth of Human gaint cell carcinoma (Lu-65) cells; type: functional, cell-based
HOS = assay: In vitro inhibitory activity against growth of Human osteogenic sarcoma (HOS) cells; type: functional, cell-based
PC-8 = assay: In vitro inhibitory activity against growth of Human lung adenocarcinoma (PC-8) cells; type: functional, cell-based
L1210 [1] = assay: (§1) In vitro inhibitory activity against growth of murine L1210 cells.; type: functional, cell-based; conditions: Mus musculus
CCRF-CEM = assay: In vitro inhibitory activity against growth of Human acute lymphocytic leukemia (CCRF-CEM) cells; type: functional, cell-based
COLO 205 = assay: In vitro inhibitory activity against growth of Human colon adenocarcinoma (COLO 205) cells.; type: functional, cell-based
PC-13 = assay: In vitro inhibitory activity against growth of Human large-cell carcinoma (PC-13) cells; type: functional, cell-based
KB = assay: In vitro inhibitory activity against growth of Human oral epidermoid carcinoma (KB) cells; type: functional, cell-based
SAOS-2 = assay: In vitro inhibitory activity against growth of Human osteogenic sarcoma (Saos-2) cells; type: functional, cell-based
QG-90 = assay: In vitro inhibitory activity against growth of Human lung small cell carcinoma (QG-90) cells; type: functional, cell-based
K562 = assay: In vitro inhibitory activity against growth of Human chronic myelogenous leukemia (K562 cells; type: functional, cell-based
PANC-1 = assay: In vitro inhibitory activity against growth of Human pancreas epitheloid carcinoma (PANC-1) cells; type: functional, cell-based
KU-2 cell line = assay: In vitro inhibitory activity against growth of Human renal-cell carcinoma (KU-2) cells; type: functional, cell-based
HT-1376 = assay: In vitro inhibitory activity against growth of Human bladder carcinoma (HT1376) cells; type: functional, cell-based
U-937 = assay: In vitro inhibitory activity against growth of Human histocytic lymphoma (U937) cells; type: functional, cell-based
HT-1080 = assay: In vitro inhibitory activity against growth of Human fibrosarcoma (HT1080) cells; type: functional, cell-based
PC-3 = assay: In vitro inhibitory activity against growth of Human lung adenocarcinoma (PC-3) cells.; type: functional, cell-based
L1210 [2] = assay: In vitro inhibitory activity against growth of murine L1210 cells at 100 ug/mL concentration; type: functional; conditions: Mus musculus
L1210 [3] = assay: as §1; type: functional, Mus musculus

For `C#Cc1c(C(N)=O)ncn1[C@@H]1O[C@H](CO)[C@@H](O)[C@H]1O`, the IC50 (OST) was 28 µg/mL (≈ 105 µM), the IC50 (SW480) was 3.3 µg/mL (≈ 12.3 µM) and the IC50 (PC-6) was 0.46 µg/mL (≈ 1.72 µM). The IC50 (QG-56) was 0.18 µg/mL (≈ 0.674 µM), the IC50 (HL-60) was 0.23 µg/mL (≈ 0.861 µM) and the IC50 (G-292) was 2.55 µg/mL (≈ 9.54 µM). It also gave an IC50 (T-24) of 0.88 µg/mL (≈ 3.29 µM), an IC50 (RPMI-8226) of 0.44 µg/mL (≈ 1.65 µM) and an IC50 (Calu-1) of 0.21 µg/mL (≈ 0.786 µM). The IC50 (Lu-65) was 3.8 µg/mL (≈ 14.2 µM), the IC50 (HOS) was 0.28 µg/mL (≈ 1.05 µM) and the IC50 (PC-8) was 0.54 µg/mL (≈ 2.02 µM). It also gave an IC50 (L1210 [1]) of 0.18 µg/mL (≈ 0.674 µM), an IC50 (CCRF-CEM) of 1.03 µg/mL (≈ 3.85 µM) and an IC50 (COLO 205) of 0.11 µg/mL (≈ 0.412 µM). It also gave an IC50 (PC-13) of 86 µg/mL (≈ 322 µM), an IC50 (KB) of 12 µg/mL (≈ 44.9 µM) and an IC50 (SAOS-2) of 4.23 µg/mL (≈ 15.8 µM). The IC50 (QG-90) was 0.23 µg/mL (≈ 0.861 µM), the IC50 (K562) was 0.17 µg/mL (≈ 0.636 µM) and the IC50 (PANC-1) was 0.16 µg/mL (≈ 0.599 µM). The IC50 (KU-2 cell line) was < 0.1 µg/mL, the IC50 (HT-1376) was 0.14 µg/mL (≈ 0.524 µM) and the IC50 (U-937) was 0.11 µg/mL (≈ 0.412 µM). The IC50 (HT-1080) was 3 µg/mL (≈ 11.2 µM) and the IC50 (PC-3) was 96 µg/mL (≈ 359 µM).
In the case of `NC(=O)c1ncn(C2O[C@H](CO)[C@@H](O)[C@H]2O)c1C#CC1CCCCC1` (some centres not stated), the inhibition at 100 µg/mL (L1210 [2]) is reported as 18.9%.
Compound `NC(=O)c1ncn(C2O[C@H](CO)[C@@H](O)[C@H]2O)c1C#CCC1CCCC1` (some centres not stated) has an inhibition at 100 µg/mL (L1210 [2]) of -10.7%.
`C#Cc1c(C#N)ncn1C1O[C@H](CO)[C@@H](O)[C@H]1O` (some centres not stated) was tested, and the IC50 (L1210 [1]) was 1.9 µg/mL (≈ 7.62 µM).
Work on `CCCCC#Cc1c(C(N)=O)ncn1C1O[C@H](CO)[C@@H](O)[C@H]1O` (some centres not stated) yielded an IC50 (L1210 [1]) of 2.29 µg/mL (≈ 7.08 µM).
In the case of `N#Cc1ncn(C2O[C@H](CO)[C@@H](O)[C@H]2O)c1C#CCCO` (some centres not stated), the IC50 (L1210 [1]) is reported as 3.3 µg/mL (≈ 11.3 µM).
Compound `N#CCCCC#Cc1c(C(N)=O)ncn1C1O[C@H](CO)[C@@H](O)[C@H]1O` (some centres not stated) has an Inhibition (L1210 [3]) of 3.6%.
`CCCC#Cc1c(C#N)ncn1C1O[C@H](CO)[C@@H](O)[C@H]1O` (some centres not stated) showed an IC50 (L1210 [1]) of 14.8 µg/mL (≈ 50.8 µM).
`C=Cc1c(C(N)=O)ncn1C1O[C@H](CO)[C@@H](O)[C@H]1O` (some centres not stated) showed an inhibition at 100 µg/mL (L1210 [2]) of 0.4%.
For `N#Cc1ncn(C2O[C@H](CO)[C@@H](O)[C@H]2O)c1C#Cc1ccccc1` (some centres not stated), the IC50 (L1210 [1]) was 80.3 µg/mL (≈ 247 µM).
`N#Cc1ncn(C2O[C@H](CO)[C@@H](O)[C@H]2O)c1C#CCO` (some centres not stated) was tested, and the IC50 (L1210 [1]) was 4.1 µg/mL (≈ 14.7 µM).
Work on `NC(=O)c1ncn(C2O[C@H](CO)[C@@H](O)[C@H]2O)c1C#CCCc1ccccc1` (some centres not stated) yielded an inhibition at 100 µg/mL (L1210 [2]) of 8.5%.
`NC(=O)c1ncn(C2O[C@H](CO)[C@@H](O)[C@H]2O)c1C#CCCO` (some centres not stated) showed an IC50 (OST) of 51 µg/mL (≈ 164 µM), an IC50 (SW480) of 6.2 µg/mL (≈ 19.9 µM) and an IC50 (PC-6) of 12 µg/mL (≈ 38.5 µM). For the same compound, the IC50 (T-24) was 15 µg/mL (≈ 48.2 µM), the IC50 (Lu-65) was 15 µg/mL (≈ 48.2 µM) and the IC50 (L1210 [1]) was 1.28 µg/mL (≈ 4.11 µM). For the same compound, the IC50 (PC-13) was 26 µg/mL (≈ 83.5 µM), the IC50 (KB) was 9.5 µg/mL (≈ 30.5 µM) and the IC50 (HT-1080) was > 100 µg/mL. For the same compound, the IC50 (PC-3) was > 100 µg/mL.
With `NC(=O)c1ncn(C2O[C@H](CO)[C@@H](O)[C@H]2O)c1C#Cc1ccccc1` (some centres not stated) the IC50 (L1210 [1]) was 20.6 µg/mL (≈ 60 µM).
With `NC(=O)c1ncn(C2O[C@H](CO)[C@@H](O)[C@H]2O)c1C#CCO` (some centres not stated) the IC50 (OST) was > 100 µg/mL, the IC50 (SW480) was 3.8 µg/mL (≈ 12.8 µM) and the IC50 (T-24) was 8.8 µg/mL (≈ 29.6 µM). For the same compound, the IC50 (Lu-65) was 54 µg/mL (≈ 182 µM), the IC50 (L1210 [1]) was 0.7 µg/mL (≈ 2.35 µM) and the IC50 (PC-13) was 44 µg/mL (≈ 148 µM). It also gave an IC50 (KB) of 7.5 µg/mL (≈ 25.2 µM) and an IC50 (PC-3) of 54 µg/mL (≈ 182 µM).
With `CC(C)(O)C#Cc1c(C(N)=O)ncn1C1O[C@H](CO)[C@@H](O)[C@H]1O` (some centres not stated) the IC50 (L1210 [1]) was 4.8 µg/mL (≈ 14.8 µM).
For `O=c1[nH]cc(F)c(=O)[nH]1` [FLUOROURACIL], the IC50 (QG-56) was 0.18 µg/mL (≈ 1.38 µM), the IC50 (HL-60) was 1.33 µg/mL (≈ 10.2 µM) and the IC50 (G-292) was > 3.3 µg/mL. For the same compound, the IC50 (RPMI-8226) was 0.07 µg/mL (≈ 0.538 µM), the IC50 (Calu-1) was > 3.3 µg/mL and the IC50 (HOS) was 0.79 µg/mL (≈ 6.07 µM). It also gave an IC50 (PC-8) of 0.42 µg/mL (≈ 3.23 µM), an IC50 (CCRF-CEM) of 2.1 µg/mL (≈ 16.1 µM) and an IC50 (COLO 205) of 0.1 µg/mL (≈ 0.769 µM). It also gave an IC50 (SAOS-2) of 0.78 µg/mL (≈ 6 µM), an IC50 (QG-90) of 0.22 µg/mL (≈ 1.69 µM) and an IC50 (K562) of 2.2 µg/mL (≈ 16.9 µM). It also gave an IC50 (PANC-1) of 0.22 µg/mL (≈ 1.69 µM), an IC50 (KU-2 cell line) of 0.28 µg/mL (≈ 2.15 µM) and an IC50 (HT-1376) of 0.58 µg/mL (≈ 4.46 µM). For the same compound, the IC50 (U-937) was 0.11 µg/mL (≈ 0.846 µM).
In the case of `NC(=O)c1ncn([C@@H]2O[C@H](CO)[C@@H](O)[C@H]2O)c1O` [MIZORIBINE], the IC50 (OST) is reported as > 100 µg/mL, the IC50 (SW480) is reported as 42 µg/mL (≈ 162 µM) and the IC50 (PC-6) is reported as 49 µg/mL (≈ 189 µM). The IC50 (T-24) was > 100 µg/mL, the IC50 (Lu-65) was > 100 µg/mL and the IC50 (PC-13) was > 100 µg/mL. For the same compound, the IC50 (KB) was > 100 µg/mL, the IC50 (HT-1080) was > 100 µg/mL and the IC50 (PC-3) was > 100 µg/mL.
